From patent US10689378B2, “Triazolopyridine compounds and uses thereof” (Novartis AG, priority 2016, dated 2020)
Where two headings read alike, the source gives them in different places.

Key:
[1] = test system: H3K27 methylation in G401 cell; assay: ELISA (H3K27 methylation) assay in G401 cells; format: cell-based, human; conditions: Homo sapiens
Method: Compounds of the present invention were assessed for their ability to inhibit PRC2 activity in a pentameric complex of EZH2, SUZ12, EED, Rbap48 and AEBP in biochemical assays. The ability of compounds of the present invention to inhibit cellular activity of PRC2 was assessed by analysing histone H3 lysine 27 methylation in human cell lines. The ability of compounds of the present invention to inhibit cancers was derived from their ability to modulate activity in human cancer cell lines bearing specific dependence to PRC2 activity to maintain cancerous growth.
ELISA (H3K27 Methylation) Assay
Representative compounds of the present invention were serially and separately diluted 3-fold in DMSO to obtain a total of eight or twelve concentrations. Then the compounds were added to G401 cell cultured in 384-well plate at 1:500 dilution to obtain the highest concentration of 20 μM. The cells were further cultured for 48 h before ELISA procedure.
Histone extraction: Cells, in 384-well plate, were washed with PBS (10×PBS buffer (80 g NaCl (Sigma, S3014), 2 g KCl (Sigma, 60128), 14.4 g Na2HPO4 (Sigma, S5136), 2.4 g KH2PO4 (Sigma, P9791) to 1 L water, pH to 7.4) and lysed with the addition of lysis buffer (0.4N HCl; 45 μL per well). The plate was gently agitated at 4° C. for 30 min. The cell lysate was neutralized with neutralization buffer (0.5 M sodium phosphate dibasic, pH 12.5, 1 mM DTT; 36 μL per well). The plate was agitated to ensure the lysates were well mixed prior to the ELISA protocol.
ELISA protocol: Cell lysates were transferred to the wells of a 384-well plate and the final volume was adjusted to 50 μL per well with PBS. The plate was sealed, centrifuged at 2,000 rpm for 2 min and incubated at 4° C. for about 16 h. The plate was washed with TBST buffer (1×TBS (10×TBS: 24.2 g Tris (Sigma, T6066), 80 g NaCl (Sigma, S3014) to 1 L of water and adjust pH to 7.6 with HCl) with 0.1% Tween-20). Blocking buffer (TBST, 5% BSA; 50 μL per well) was added and the plate was incubated for 1 h at rt. The blocking buffer was removed and primary antibody was added (30 μL per well). The following dilutions were performed with blocking buffer: for anti-H3K27me3 antibody (Cell Signaling Technology, #9733), dilution was 1:1000; for anti-H3K27me2 antibody (Cell Signaling Technology, #9288), dilution was 1:100; for anti-H3 antibody (Abcam, Cat #24834), dilution was 1:1000. The primary antibody was incubated in the plate at rt for 1 h. The wells were washed with TBST and incubated with secondary antibody for 1 h at rt. For secondary antibodies, the following dilutions were carried out with blocking buffer: anti-rabbit antibody (Jackson ImmunoResearch, #111-035-003), dilution was 1:2000; and anti-mouse antibody (Cell signaling technology, #7076), dilution was 1:1000. After 1 h of incubation at rt, the wells were washed with TBST. ECL substrate (Pierce, #34080) was added at 30 μL per well and the plates were centrifuged at 2,000 rpm for 2 min. The signal was read using a PerkinElmer Envision Reader. The H3K27 methylation readouts were normalized using H3 signal and then percentage inhibition was calculated against the samples treated with DMSO. The data were then fit to a dose response curve using the program Helios to get the IC50 values of the test compound.

EED (1-441)-His protein = molecular target: T1, EED (1-441)-His protein (Homo sapiens, UniProt O75530); assay: EED-H3K27Me3 peptide competition binding assay by AlphaScreen
T1 construct: 30 nM EED (1-441)-His protein
T1 sequence (O75530 whole entry): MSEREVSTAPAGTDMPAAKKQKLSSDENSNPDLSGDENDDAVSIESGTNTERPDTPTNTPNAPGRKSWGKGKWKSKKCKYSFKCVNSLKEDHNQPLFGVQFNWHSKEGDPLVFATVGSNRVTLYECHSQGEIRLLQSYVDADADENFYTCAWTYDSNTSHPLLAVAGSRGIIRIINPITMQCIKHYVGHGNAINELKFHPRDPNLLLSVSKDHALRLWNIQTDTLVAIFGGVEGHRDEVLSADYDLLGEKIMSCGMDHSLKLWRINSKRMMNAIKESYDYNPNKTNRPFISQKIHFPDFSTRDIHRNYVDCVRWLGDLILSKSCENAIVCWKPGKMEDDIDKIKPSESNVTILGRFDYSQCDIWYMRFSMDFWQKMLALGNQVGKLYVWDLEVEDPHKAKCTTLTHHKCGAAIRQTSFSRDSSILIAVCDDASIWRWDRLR
Method: EED-H3K27Me3 Peptide Competition Binding Assay by AlphaScreen (α-Screen)
To assess the compounds' potency in the EED-H3K27Me3 competition binding assay, compounds were serially diluted 3-fold in DMSO to obtain a total of twelve concentrations. Then compounds at each concentration (75 nL of each) were transferred by Mosquito into a 384-well Perkin Elmer ProxiPlate 384 plus plates. 8 uL of solutions containing 30 nM EED (1-441)-His protein and 15 nM biotin-H3K27Me3 (19-33) peptide in the buffer (25 mM HEPES, pH 8, 0.02% Tween-20, 0.5% BSA) were added to the wells and then incubated with compound for 20 min. AlphaScreen detection beads mix was prepared immediately before use by mixing nickel chelate acceptor beads and streptavidin donor beads in a 1:1 ratio (Perkin Elmer, Product No. 6760619C/M/R) into the buffer described above. Then 4 μL of detection beads mix was added to the plate and incubate in the dark at the rt for 1 h. The final concentration of donor and acceptor beads was 10 μg/mL for each. Plates were read on EnVision (PerkinElmer) using the AlphaScreen setting adapted for optimal signal detection with a 615 nm filter, after sample excitation at 680 nm. The emission signal at 615 nm was used to quantify compounds inhibition. AlphaScreen signals were normalized based on the reading coming from the positive (maximum signal control) and negative controls (minimum signal control) to give percentage of activities left. The data were then fit to a dose response equation using the program Helios (Novartis) to get the IC50 values. Helios is a Novartis in-house assay data analysis software using the methods described by Normolle, D. P., Statistics in Medicine, 12:2025-2042 (1993); Formenko, I. et al, Computer Methods and Programs in Biomedicine, 82, 31-37 (2006); Sebaugh, J. L., Pharmaceutical Statistics, 10:128-134 (2011); Kelly, C. et al., Biometrics, 46(4):1071-1085 (1990); and Kahm, M. et al., Journal of Statistical Software, 33 (7): (2010) (grofit: Fitting Biological Growth Curves with R, pages 1-21, available at http://www.jstatsoft.org/).

[2] = G-401, read-out: (c) IC50 ELISA Qualified
[3] = read-out: (a) IC50 EED Alphascreen binding Qualified
[4] = G-401, read-out: (c) IC50, ELISA Qualified
[5] = read-out: (a) IC50, EED Alphascreen binding Qualified
[6] = G-401, H3K27 methylation ELISA, read-out: (c) IC50 ELISA Qualified
[7] = EED-H3K27Me3 peptide competition, AlphaScreen, read-out: (a) IC50 EED Alphascreen binding Qualified

SMILES | IC50 [1, 4] [nM] | IC50 (EED (1-441)-His protein; [5]) [nM] | IC50 [1, 6] [nM] | IC50 (EED (1-441)-His protein; [7]) [nM] | other results
COc1cnccc1CNc1ccc(-c2cccnc2C)c2nncn12 [Example 360, N-((3-methoxypyridin-4-yl)methyl)-8-(2-methylpyridin-3-yl)-[1,2,4]triazolo[4,3-a] pyridin-5-amine] |  |  |  |  | IC50 [1, 2]: 3040 nM; IC50 (EED (1-441)-His protein; [3]): 4090 nM
COc1cccc(F)c1CNc1ccc(-c2cnc(N3CCOCC3)nc2C)c2nncn12 [Example 261, N-(2-fluoro-6-methoxybenzyl)-8-(4-methyl-2-morpholinopyrimidin-5-yl)-[1,2,4]triazolo[4,3-a]pyridin-5-amine] |  |  | 7.8 | 17.6 | 
COc1cccc(F)c1CNc1ccc(-c2ccccc2C(F)(F)F)c2nncn12 [Example 193, N-(2-fluoro-6-methoxybenzyl)-8-(2-(trifluoromethyl)phenyl)-[1,2,4]triazolo[4,3-a]pyridin-5-amine] |  |  | 704 | 283 | 
CN(C)Cc1ccc(-c2ccc(NCc3ccc(F)cc3)n3cnnc23)cc1 [Example 37, 8-(4-((dimethylamino)methyl)phenyl)-N-(4-fluorobenzyl)-[1,2,4]triazolo[4,3-a] pyridin-5-amine] | 1800 | 1520 |  |  | 
COc1ccc(F)cc1CNc1ccc(-c2ccc(S(C)(=O)=O)nc2)c2nncn12 [Example 115, N-(5-fluoro-2-methoxybenzyl)-8-(6-(methylsulfonyl)pyridin-3-yl)-[1,2,4]triazolo[4,3-a] pyridin-5-amine] | 696 | 831 |  |  | 
CN(C)Cc1ccc(-c2ccc(NCc3ccccc3F)n3cnnc23)cc1 [Example 36, 8-(4-((dimethylamino)methyl)phenyl)-N-(2-fluorobenzyl)-[1,2,4] triazolo [4,3-a]pyridin-5-amine] | 937 | 1010 |  |  | 
COc1cccc(F)c1CNc1ccc(-c2cc(F)c(N)cc2F)c2nncn12 [Example 208, 8-(4-amino-2,5-difluorophenyl)-N-(2-fluoro-6-methoxybenzyl)-[1,2,4]triazolo[4,3-a]pyridin-5-amine] |  |  | 140 | 105 | 
COc1cccc(F)c1CNc1ccc(-c2ccnc(C(F)(F)F)c2)c2nncn12 [Example 264, N-(2-fluoro-6-methoxybenzyl)-8-(2-(trifluoromethyl)pyridin-4-yl)-[1,2,4]triazolo[4,3-a] pyridin-5-amine] |  |  | 14.7 | 14.8 | 
COc1cccc(F)c1CNc1ccc(-c2cnn(C)c2)c2nncn12 [Example 125, N-(2-fluoro-6-methoxybenzyl)-8-(1-methyl-1H-pyrazol-4-yl)-[1,2,4] triazolo[4,3-a]pyridin-5-amine] | 173 | 153 |  |  | 
COc1cccnc1CNc1ccc(-c2cccnc2C)c2nncn12 [Example 347, N-((3-methoxypyridin-2-yl)methyl)-8-(2-methylpyridin-3-yl)-[1,2,4]triazolo[4,3-a] pyridin-5-amine] |  |  |  |  | IC50 [1, 2]: 771 nM; IC50 (EED (1-441)-His protein; [3]): 791 nM
COc1ccccc1-c1ccc(NCc2c(F)cccc2OC)n2cnnc12 [Example 191, N-(2-fluoro-6-methoxybenzyl)-8-(2-methoxyphenyl)-[1,2,4]triazolo[4,3-a] pyridin-5-amine] |  |  | 996 | 479 | 
COc1cccc(F)c1CNc1ccc(-c2ccc(S(=O)(=O)N(C)C)cc2)c2nncn12 [Example 79, 4-(5-((2-fluoro-6-methoxybenzyl)amino)-[1,2,4]triazolo[4,3-a]pyridin-8-yl)-N,N-dimethylbenzene sulfonamide] | 78.5 | 116 |  |  | 
COc1cccc(F)c1CNc1ccc(-c2cnc(N3CCOCC3)cc2C)c2nncn12 [Example 262, N-(2-fluoro-6-methoxybenzyl)-8-(4-methyl-6-morpholinopyridin-3-yl)-[1,2,4]triazolo[4,3-a]pyridin-5-amine] |  |  | 15.6 | 12.4 | 

Now from value to molecule, other results behind:

IC50 [1, 4] [nM] | IC50 (EED (1-441)-His protein; [5]) [nM] | IC50 [1, 6] [nM] | IC50 (EED (1-441)-His protein; [7]) [nM] | SMILES | other results
2900 | 1270 |  |  | COc1c(F)cccc1CNc1ccc(-c2ccc(S(=O)(=O)C3CCN(C)CC3)cc2)c2nncn12 [Example 138, N-(3-fluoro-2-methoxybenzyl)-8-(4-((1-methylpiperidin-4-yl)sulfonyl)phenyl)-[1,2,4] triazolo[4,3-a]pyridin-5-amine] | 
 |  | 115 | 112 | COc1ccc(F)c(F)c1CNc1ccc(-c2cccnc2C)c2nncn12 [Example 286, N-(2,3-difluoro-6-methoxybenzyl)-8-(2-methylpyridin-3-yl)-[1,2,4]triazolo[4,3-a] pyridin-5-amine] | 
287 | 359 |  |  | COc1cc(CNc2ccc(-c3ccc(CN(C)C)cc3)c3nncn23)c(F)cc1F [Example 98, N-(2,4-difluoro-5-methoxybenzyl)-8-(4-((dimethylamino)methyl)phenyl)-[1,2,4]triazolo[4,3-a] pyridin-5-amine] | 
 |  | 112 | 176 | COc1cc(CNc2ccc(-c3cccnc3C)c3nncn23)c(F)cc1F [Example 285, N-(2,4-difluoro-5-methoxybenzyl)-8-(2-methylpyridin-3-yl)-[1,2,4]triazolo[4,3-a] pyridin-5-amine] | 
788 | 1350 |  |  | COc1cc(CNc2ccc(-c3ccc(CN(C)C)cc3)c3nncn23)ccc1F [Example 156, 8-(4-((dimethylamino)methyl)phenyl)-N-(4-fluoro-3-methoxybenzyl)-[1,2,4] triazolo[4,3-a]pyridin-5-amine] | 
 |  | 434 | 425 | COc1cc(F)cc(F)c1CNc1c(F)cc(-c2cccnc2C)c2nncn12 [Example 320, N-(2,4-difluoro-6-methoxybenzyl)-6-fluoro-8-(2-methylpyridin-3-yl)-[1,2,4]triazolo [4,3-a]pyridin-5-amine] | 
11400 | 2880 |  |  | COc1c(F)cccc1CNc1ccc(-c2ccc(S(C)(=O)=O)nc2)c2nncn12 [Example 136, N-(3-fluoro-2-methoxybenzyl)-8-(6-(methylsulfonyl)pyridin-3-yl)-[1,2,4]triazolo[4,3-a] pyridin-5-amine] | 
